This note sets out measurements from ChEMBL document CHEMBL1142400, “An updated steroid benchmark set and its application in the discovery of novel nanomolar ligands of sex hormone-binding globulin” (J Med Chem, 2008).

This assay deals with T1, Sex hormone-binding globulin (Homo sapiens, UniProt P04278).
T1 sequence (P04278 whole entry): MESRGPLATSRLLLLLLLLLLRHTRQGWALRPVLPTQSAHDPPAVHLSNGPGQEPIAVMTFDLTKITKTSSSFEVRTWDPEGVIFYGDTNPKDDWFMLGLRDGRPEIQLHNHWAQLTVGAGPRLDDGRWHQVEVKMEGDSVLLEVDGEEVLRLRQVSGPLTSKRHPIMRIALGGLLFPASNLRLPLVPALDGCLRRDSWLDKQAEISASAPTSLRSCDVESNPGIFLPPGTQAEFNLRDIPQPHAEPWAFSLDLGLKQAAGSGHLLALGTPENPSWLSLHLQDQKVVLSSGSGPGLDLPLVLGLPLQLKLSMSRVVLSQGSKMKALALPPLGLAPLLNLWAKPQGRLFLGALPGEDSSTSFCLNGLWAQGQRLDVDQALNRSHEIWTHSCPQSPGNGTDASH
Nature of the assay: Displacement of [3H]5alpha dihydrotestosterone from human sex hormone binding globulin. For orientation: Loss of bound radioactivity is the signal in a displacement assay; it reports binding, not function.

One may read the Kd as the equilibrium constant for the complex coming apart.

SMILES strings stand for the structures.

The compound `C[C@]12CC[C@H]3C(=CCc4cc(O)ccc43)[C@@H]1CC[C@@H]2O` had a Kd of 2.4 nM.
`C[C@]12CC[C@@H]3c4ccc(O)cc4C=C[C@H]3[C@@H]1CC[C@@H]2O` showed an equilibrium dissociation constant (Kd) of 1.74 nM.
Under `C[C@]12CC[C@H]3[C@@H](CC=C4C[C@@H](O)CC[C@@H]43)[C@@H]1CC[C@@H]2O` stands 0.288 nM; under `CC1(C)CC2=C3C=C[C@@]4(C)[C@@H](CC[C@]4(C)O)[C@@H]3CCC2=CC1=O`, 138 nM; under `CC(C)(C)CC(C)(C)c1ccc(O)cc1`, 2140 nM.
The result for `COc1cc(/C=N/CCc2ccccc2)ccc1O` reads 589 nM.
For `CCc1cc(C(=O)Cc2ccccc2C)c(O)cc1O`, binding was put at a Kd of 107 nM.
The result for `C[C@@H]1CC2=CC(=O)CC[C@]2(C)[C@@]2(F)CC[C@]3(C)[C@@H](O)CC[C@H]3[C@H]12` reads 3.09 nM; that for `C#C[C@]1(O)CC[C@H]2[C@@H]3CCC4=C[C@H](O)CC[C@]4(C)C3C(=C)C[C@@]21CC` (stereo partly drawn), 21.4 nM.
Under `Cc1c(Cc2ccccc2)c(=O)oc2c(C)c(O)ccc12` stands 2190 nM; under `C#C[C@]1(O)CC[C@H]2[C@@H]3CC[C@H]4CC(=O)CC[C@]4(C)[C@H]3CC[C@@]21C`, 0.182 nM.
In turn, `C[C@]12CC[C@H]3[C@@H](CC[C@H]4CC(=O)C[C@H](CCCCCCN)[C@@]43C)[C@@H]1CC[C@@H]2O` had a Kd of 29.5 nM.
With `C[C@@H]1CC2=CC(=O)C=C[C@]2(C)[C@H]2CC[C@]3(C)[C@@H](O)CC[C@H]3[C@H]12`, binding was put at a Kd of 4.37 nM.
The result for `C[C@H]1C[C@H]2[C@@H]3CC[C@H](O)[C@@]3(C)CC[C@@H]2[C@@]2(C)CCC(=O)C=C12` reads 4.37 nM.
The result for `C[C@]12CC[C@H]3[C@@H](CCC4CC(=O)CC[C@@H]43)[C@@H]1CC[C@@H]2O` (stereo partly drawn) reads 4.37 nM.
The result for `C[C@@H]1C=C2CC(O)CC[C@]2(C)[C@H]2CC[C@@]3(C)[C@@H](CC[C@]3(C)O)[C@H]12` (stereo partly drawn) reads 363 nM; that for `C[C@@H]1CC2=CC(=O)CC[C@@H]2[C@H]2CC[C@@]3(C)C(=CC[C@@H]3O)[C@@H]21`, 0.851 nM; that for `C[C@@]12CCC[C@H]1[C@@H]1CCc3cc(O)ccc3[C@H]1CC2`, 5.01 nM.
As to `C#C[C@]1(O)CC[C@H]2[C@H]3[C@H](C(=C)C[C@@]21CC)[C@H]1CC[C@@H](O)C[C@@H]1C[C@H]3C`, the Kd was 5.37 nM.
The result for `C[C@@H]1C[C@H]2C[C@@H](O)CC[C@]2(C)[C@H]2CC[C@]3(C)[C@@H](O)CC[C@H]3[C@H]12` reads 1 nM; that for `C[C@@H]1C[C@H]2CC(=O)CC[C@]2(C)[C@H]2CC[C@@]3(C)[C@@H](CC[C@]3(C)O)[C@H]12`, 0.891 nM; that for `C[C@]12CCC(=O)C[C@@H]1CC[C@@H]1[C@@H]2[C@@H](O)C[C@@]2(C)[C@H]1CC[C@@]2(O)CCCN`, 11000 nM.
The result for `CC1=C2CC[C@H]3[C@@H]4CC[C@H](O)[C@@]4(C)CC[C@@H]3[C@@]2(C)CCC1=O` reads 0.49 nM; that for `C[C@]12CC[C@@H]3c4cc(I)c(O)cc4CC[C@H]3[C@@H]1CC[C@@H]2O`, 0.479 nM.
Under `Cc1c(O)ccc(C(=O)Cc2ccccc2Cl)c1O` stands 2190 nM; under `Oc1ccc(-c2cc3ccc(O)cc3o2)cc1`, 832 nM.
For `C[C@@H]1CC2=CC(=O)C=C[C@]2(C)[C@H]2CC[C@@]3(C)[C@@H](CC[C@]3(C)O)[C@H]12`, the Kd is 2.69 nM.
The result for `C[C@@H]1CC2=CC(=O)CC[C@]2(C)[C@H]2CC[C@]3(C)[C@@H](O)CC[C@H]3[C@H]12` reads 1.95 nM.
Under `C[C@]1(O)CC[C@H]2[C@@H]3CCC4=CC(=O)CC[C@]4(C)[C@@]3(F)C(=O)C[C@@]21C` stands 5.89 nM; under `COc1cc(C(=O)OC2CC3CCC2(C)C3(C)I)ccc1O` (stereo not drawn), 407 nM.
The result for `CC[C@H](C1CCC(O)CC1)[C@@H](CC)C1CCC(O)CC1` (stereo partly drawn) reads 28800 nM; that for `CC(=O)[C@@]1(O)CC[C@H]2[C@@H]3CC=C4C[C@@H](O)CC[C@]4(C)[C@H]3CC[C@@]21C`, 437 nM.
In turn, `C[C@]12CCC(=O)C[C@@H]1[C@@H](F)C[C@@H]1[C@@H]2CC[C@]2(C)[C@@H](O)CC[C@@H]12` showed a Kd of 0.891 nM.
The result for `CC[C@H](C1CCCCC1)[C@@H](CC)C1CCCCC1` reads 2450 nM; that for `C#C[C@]1(O)CC[C@H]2[C@@H]3CC[C@H]4CC(=O)CC[C@@H]4[C@H]3C(=C)C[C@@]21CC`, 1.58 nM.
Under `C[C@]12CCC3=C4CCC(=O)C=C4C=C[C@H]3[C@@H]1CC[C@@H]2O` stands 1150 nM; under `C#C[C@]1(O)CC[C@H]2[C@@H]3CCC4=C[C@@H](O)CC[C@]4(C)C3C(=C)C[C@@]21CC` (stereo partly drawn), 13.2 nM; under `CC1(O)CC[C@H]2[C@@H]3CC=C4CC(O)CC[C@]4(C)[C@H]3CC[C@@]21C` (stereo partly drawn), 4.37 nM.
Consider `C#C[C@]1(O)CC[C@H]2[C@@H]3[C@H](C)C=C4CC(O)CC[C@]4(C)[C@H]3CC[C@@]21C` (stereo partly drawn), for which the Kd is 363 nM.
The result for `C#C[C@]1(O)CC[C@H]2[C@@H]3CC=C4C[C@@H](O)CC[C@]4(C)[C@H]3CC[C@@]21C` reads 1.23 nM; that for `C[C@@H]1C[C@H]2CC(=O)CC[C@]2(C)[C@H]2CC[C@]3(C)[C@@H](O)CC[C@H]3[C@H]12`, 0.417 nM.
Under `C[C@]12CC[C@H]3[C@@H](CCC4=CC(=O)CC[C@@]43C)[C@@H]1C[C@@H](O)[C@@H]2O` stands 12 nM; under `C#C[C@]1(O)CC[C@H]2[C@@H]3CC[C@H]4CC(F)(F)CC[C@]4(C)[C@H]3CC[C@@]21C`, 4.37 nM; under `C[C@@H]1CC2CC(=O)CC[C@@H]2[C@H]2CC[C@]3(C)[C@@H](O)CC[C@H]3[C@@H]21` (stereo partly drawn), 3.47 nM.
Under `C[C@@H]1C[C@H]2C[C@@H](O)CC[C@]2(C)[C@H]2CC[C@@]3(C)[C@@H](CC[C@]3(C)O)[C@H]12` stands 3.47 nM; under `O=C1C[C@@H](c2ccc(O)cc2)Oc2cc(O)cc(O)c21` (stereo in doubt; 82) [NARINGENIN], 28200 nM; under `O=C1C[C@@H](c2ccc(O)cc2)Oc2cc(O)cc(O)c21` (stereo in doubt; 90) [NARINGENIN], 955 nM.
With `COc1cc2c(cc1O)CC[C@@H]1[C@@H]2CC[C@]2(C)[C@@H](O)CC[C@@H]12` [2-METHOXYESTRADIOL], the Kd was 0.832 nM.
`CCCCCCCCCc1ccc(O)cc1` [4-NONYLPHENOL] gave a Kd of 1200 nM.
Under `C[C@]12CCC(=O)C=C1CC[C@@H]1[C@@H]2[C@@H](O)C[C@]2(C=O)[C@@H](C(=O)CO)CC[C@@H]12` [ALDOSTERONE] stands 4790 nM; under `C[C@]12CC[C@@H](O)C[C@@H]1CC[C@@H]1[C@@H]2CC[C@]2(C)[C@@H](O)CC[C@@H]12` [ANDROSTANDIOL], 0.776 nM.
Under `C[C@]12CCC(=O)C=C1CC[C@@H]1[C@@H]2CC[C@]2(C)C(=O)CC[C@@H]12` [ANDROSTENEDIONE] stands 34.7 nM; under `C[C@]12CC[C@@H](O)C[C@@H]1CC[C@@H]1[C@@H]2CC[C@]2(C)C(=O)CC[C@@H]12` [ANDROSTERONE], 70.8 nM; under `C[C@@H]1CC2=CC(=O)CC[C@]2(C)[C@H]2CC[C@@]3(C)[C@@H](CC[C@]3(C)O)[C@H]12` [BOLASTERONE], 1.74 nM.
Under `C[C@]12C[C@H](O)[C@H]3[C@@H](CCC4=CC(=O)CC[C@@]43C)[C@@H]1CC[C@@H]2C(=O)CO` [CORTICOSTERONE] stands 457 nM.
On to `C[C@]12CCC(=O)C=C1CC[C@@H]1[C@@H]2C(=O)C[C@@]2(C)[C@H]1CC[C@]2(O)C(=O)CO` [CORTISONE], for which the Kd is 372 nM.
The compound `C[C@]12CCC(=O)C=C1CC[C@@H]1[C@@H]2CC[C@@]2(C)[C@H]1CC[C@]2(O)C(=O)CO` [CORTODOXONE] had a Kd of 36.3 nM.
The compound `C#C[C@]1(O)CC[C@H]2[C@@H]3CCC4=Cc5oncc5C[C@]4(C)[C@H]3CC[C@@]21C` [DANAZOL] had a Kd of 6.31 nM.
Under `C#C[C@]1(O)CC[C@H]2[C@@H]3CCC4=CCCC[C@@H]4[C@H]3C(=C)C[C@@]21CC` [DESOGESTREL] stands 251 nM.
The result for `C[C@]12CC[C@H]3[C@@H](CCC4=CC(=O)CC[C@@]43C)[C@@H]1CC[C@@H]2C(=O)CO` [DESOXYCORTICOSTERONE] reads 41.7 nM; that for `C[C@]12CCc3c(ccc4cc(O)ccc34)[C@@H]1CCC2=O` [EQUILENIN], 2.4 nM.
Under `C[C@]12CC[C@H]3C(=CCc4cc(O)ccc43)[C@@H]1CCC2=O` [EQUILIN] stands 3.09 nM.
The compound `C[C@]12CC[C@@H]3c4ccc(OC(=O)c5ccccc5)cc4CC[C@H]3[C@@H]1CC[C@@H]2O` [ESTRADIOL BENZOATE] showed a Kd of 1150 nM.
The result for `C[C@]12CC[C@@H]3c4ccc(O)cc4CC[C@H]3[C@@H]1C[C@@H](O)[C@@H]2O` [ESTRIOL] reads 234 nM; that for `C[C@]12CC[C@@H]3c4ccc(O)cc4CC[C@H]3[C@@H]1CCC2=O` [ESTRONE], 6.61 nM.
The result for `C#C[C@]1(O)CC[C@H]2[C@@H]3CCc4cc(O)ccc4[C@H]3CC[C@@]21C` [ETHINYL ESTRADIOL] reads 155 nM; that for `C#C[C@]1(O)CC[C@H]2[C@@H]3CCC4=CC(=O)CC[C@]4(C)[C@H]3CC[C@@]21C` [ETHISTERONE], 1.66 nM.
The result for `C[C@]12CC[C@@H](O)C[C@H]1CC[C@@H]1[C@@H]2CC[C@]2(C)C(=O)CC[C@@H]12` [ETIOCHOLANOLONE] reads 708 nM.
